# How the values were obtained:
# Assay type in all cases: in vivo
# [1] = tested on: LPS induced zebrafish sepsis model; assay: Survival in LPS induced zebrafish sepsis model; details: comparison of UNC0642 and A366, zebrafish larvae, 27 μg/ml LPS, 24 h
# Procedure: (§1) An LPS induced zebrafish sepsis model which mimics the hallmarks of human sepsis was developed (Philip et al., 2017). Zebrafish show varied susceptibility and responsiveness to LPS from different bacterial strains. Exposure of zebrafish larvae at 3 days post-fertilization (dpf) to two types of LPS (LPS from Escherichia coli 0111:B4 (Sigma) at 100 μg/ml for 5-6 hrs; or LPS from Salmonella at 27 μg/ml for 24 hrs) were both effective in inducing tail fin swelling, increased ROS production, increased vascular leakage and increased mortality.
# Survival analyses for zebrafish (wildtype) exposed to various concentrations of LPS (Escherichia coli 0111:B4; Sigma) was performed. 3 dpf larvae were exposed to LPS by immersion technique. Larvae were treated with 10, 25, 50, 125, 250, 500, 1000, 2500, 5000 or 10000 nM UNC0642 along with 100 μg/ml LPS (LPS was dissolved in eggwater), by static immersion at 28.5° C. for 24 h in a total volume of 2 mL per treatment. Control larvae were exposed to egg water. Survival numbers were recorded and EC50s calculated.
# (§2) 3 dpf larvae were exposed to LPS by immersion technique. […] Control larvae were exposed to egg water. Survival numbers were recorded and EC50s calculated. The percentage (%) of embryos showing vascular leakage was also recorded and 1050s calculated.
# [2] = tested on: LPS-induced vascular leakage; assay: Vascular leakage (leaked red blood cells in tailfin) in LPS-treated zebrafish larvae; details: comparison of UNC0642 and A366, zebrafish larvae, 27 μg/ml LPS, 24 h
# Procedure: as §1
# 3 dpf Tg (flk1:GFP; gata-1:Dsred) double transgenic larvae were exposed to Vehicle, LPS (100 μg/ml) or LPS+1 μM UNC0642 by static immersion for 6 h at 28.5° C. to induce endothe-lial dysfunction and the resulting leakage of red blood cells. The larvae were then imaged using a Leica fluorescence microscope (Leica Microsystems, Wetzlar, Germany). Red blood cells that leaked out into the tailfin region were quantified.
# as §2
# [3] = tested on: zebrafish larvae; assay: Toxicity in zebrafish larvae; details: 3 dpf larvae, observed daily for 72 hours post incubation
# Text: Parameters of developmental toxicity (organ size and shape), cardiac toxicity (cardiac edema and heart rate), neuromuscular toxicity (touch response) and finally death were investigated.
compound,measurement,setting,value
"COc1cc2c(cc1OCCCN1CCCC1)N=C(N)C21CCC1 [A366, 5-Methoxy-6′-[3-(1-pyrrolidinyl)propoxy]spiro[cyclobutane-1,3′-[3H]indol]-2′-amine]",Rescue of sepsis-associated mortality,[1],able to rescue
same,Rescue of sepsis-associated vascular leakage,[2],able to rescue
same,Concentration below which non-toxic to zebrafish embryos,[3],below 2.5 mM

# Source: US11998549B2, “Methods of treating a vascular leakage-associated disease or disorder” (UNITY HEALTH TORONTO, priority 2019, dated 2024)
